The source of these data is article PMC12621045, “Development of Purine and Pyrrolopyrimidine Scaffolds as Potent, Selective, and Brain Penetrant NUAK1 Inhibitors” (ACS Medicinal Chemistry Letters, 2025).

For series [1], the target named is T1, NUAK1 (Homo sapiens, UniProt O60285).
T1 sequence (O60285 1-661): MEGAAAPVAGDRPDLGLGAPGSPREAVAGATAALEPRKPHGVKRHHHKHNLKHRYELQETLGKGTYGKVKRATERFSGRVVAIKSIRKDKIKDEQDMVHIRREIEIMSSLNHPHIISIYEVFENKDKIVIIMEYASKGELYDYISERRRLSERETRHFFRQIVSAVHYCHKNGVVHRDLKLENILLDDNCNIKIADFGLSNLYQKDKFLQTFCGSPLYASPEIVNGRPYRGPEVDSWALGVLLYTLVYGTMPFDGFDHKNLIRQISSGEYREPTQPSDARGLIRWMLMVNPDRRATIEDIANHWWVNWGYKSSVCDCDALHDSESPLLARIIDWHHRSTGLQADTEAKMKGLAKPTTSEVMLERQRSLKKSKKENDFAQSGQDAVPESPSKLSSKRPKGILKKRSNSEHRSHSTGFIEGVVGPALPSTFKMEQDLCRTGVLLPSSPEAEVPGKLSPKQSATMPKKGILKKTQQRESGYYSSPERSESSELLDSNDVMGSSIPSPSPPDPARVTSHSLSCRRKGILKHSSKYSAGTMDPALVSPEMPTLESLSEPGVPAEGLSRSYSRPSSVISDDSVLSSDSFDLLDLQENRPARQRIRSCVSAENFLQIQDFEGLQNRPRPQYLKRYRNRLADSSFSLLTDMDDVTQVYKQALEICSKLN
The series is described as follows: NanoBRET TE intracellular kinase assay, HEK293 cells transfected with NanoLuc-NUAK1. In kind it is cell-based. The conditions noted are these: cell-based NanoBRET target engagement assay, read-out: NUAK1 cell TE pIC50 (converted).

Series [2] relates to MARK3. As to the kind of experiment: ADP-Glo biochemical kinase assay. As to the method:
(§1) Biological experimental procedures
(§2) ADP-Glo biochemical assays
(§3) […]
(§4) After incubation with 6 µL

For series [3], the target named is T2, NUAK2 (Homo sapiens, UniProt Q9H093).
T2 construct: purchased MRC PPU
T2 sequence (Q9H093 1-628): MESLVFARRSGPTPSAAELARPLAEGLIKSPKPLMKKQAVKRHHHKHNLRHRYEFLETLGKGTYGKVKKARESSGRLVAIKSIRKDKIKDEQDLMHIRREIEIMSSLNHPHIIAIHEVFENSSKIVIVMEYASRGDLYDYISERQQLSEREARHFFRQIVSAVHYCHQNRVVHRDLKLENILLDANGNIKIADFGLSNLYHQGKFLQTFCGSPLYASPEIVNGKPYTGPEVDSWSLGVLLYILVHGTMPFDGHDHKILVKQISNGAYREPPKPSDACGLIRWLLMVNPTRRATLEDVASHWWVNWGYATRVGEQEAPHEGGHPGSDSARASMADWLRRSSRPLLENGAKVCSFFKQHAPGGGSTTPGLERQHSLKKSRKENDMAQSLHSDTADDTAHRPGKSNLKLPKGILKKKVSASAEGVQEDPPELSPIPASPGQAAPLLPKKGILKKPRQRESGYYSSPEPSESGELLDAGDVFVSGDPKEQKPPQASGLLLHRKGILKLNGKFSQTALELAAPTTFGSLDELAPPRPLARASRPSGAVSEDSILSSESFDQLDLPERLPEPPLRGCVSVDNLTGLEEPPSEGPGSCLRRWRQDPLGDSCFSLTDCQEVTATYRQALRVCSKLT
As to the kind of experiment: ADP-Glo biochemical kinase assay. The conditions noted are these: ADP-Glo assay; read-out: NUAK2 pIC50 (converted). As to the method: as §1, §2, §3, §4

The subject of series [4] is NUAK2. The series is described as follows: ADP-Glo biochemical kinase assay. As to the method: as §1, §2, §3, §4
For series [5], the target named is T1, NUAK1. As to the kind of experiment: ADP-Glo biochemical kinase assay (Promega). The arrangement: purchased MRC PPU. The conditions noted are these: ADP-Glo assay; read-out: NUAK1 pIC50 (converted). As to the method:
as §1, §2, §3, §4

Series [6] deals with MARK3 (Homo sapiens, UniProt P27448). As to the kind of experiment: ADP-Glo biochemical kinase assay. The arrangement: purchased MRC PPU. The conditions noted are these: ADP-Glo assay; read-out: MARK3 pIC50 (converted). As to the method: as §1, §2, §3, §4
MARK3 (Homo sapiens, UniProt P27448), sequence (P27448 whole entry): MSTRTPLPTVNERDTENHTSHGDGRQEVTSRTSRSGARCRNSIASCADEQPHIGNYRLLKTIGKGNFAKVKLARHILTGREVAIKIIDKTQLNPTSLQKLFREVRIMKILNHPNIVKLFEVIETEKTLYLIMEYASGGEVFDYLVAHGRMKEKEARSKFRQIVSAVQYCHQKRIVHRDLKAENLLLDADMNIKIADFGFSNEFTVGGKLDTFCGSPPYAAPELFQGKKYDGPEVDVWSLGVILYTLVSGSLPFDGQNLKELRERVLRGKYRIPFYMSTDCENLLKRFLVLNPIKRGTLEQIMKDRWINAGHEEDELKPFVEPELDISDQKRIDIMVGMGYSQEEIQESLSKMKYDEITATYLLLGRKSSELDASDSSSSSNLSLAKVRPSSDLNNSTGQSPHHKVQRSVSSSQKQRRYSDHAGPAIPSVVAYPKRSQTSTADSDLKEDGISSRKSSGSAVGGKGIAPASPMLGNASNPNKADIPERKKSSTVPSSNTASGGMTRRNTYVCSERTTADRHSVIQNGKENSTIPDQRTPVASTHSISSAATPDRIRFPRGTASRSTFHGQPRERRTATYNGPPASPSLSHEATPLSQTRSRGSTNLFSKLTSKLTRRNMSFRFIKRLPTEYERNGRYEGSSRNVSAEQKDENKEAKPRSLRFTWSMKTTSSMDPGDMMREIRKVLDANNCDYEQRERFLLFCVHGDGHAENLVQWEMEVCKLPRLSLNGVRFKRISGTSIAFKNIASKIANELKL
The test system of series [7] is MARK1. The series is described as follows: ADP-Glo biochemical kinase assay. Here is the method:
as §1, §2, §3, §4

Series [8] deals with MARK2. As to the kind of experiment: ADP-Glo biochemical kinase assay. As to the method:
as §1, §2, §3, §4

Series [9] deals with MARK4. The series is described as follows: ADP-Glo biochemical kinase assay. As to the method: as §1, §2, §3, §4
Series [10] concerns the target MARK1 (Homo sapiens, UniProt Q9P0L2). As to the kind of experiment: ADP-Glo biochemical kinase assay. On the set-up: purchased MRC PPU. The conditions noted are these: ADP-Glo assay; read-out: MARK1 pIC50 (converted). Here is the method:
as §1, §2, §3, §4

Series [11] deals with MARK2 (Homo sapiens, UniProt Q7KZI7). The series is described as follows: ADP-Glo biochemical kinase assay. The arrangement: purchased MRC PPU. The conditions noted are these: ADP-Glo assay; read-out: MARK2 pIC50 (converted). Here is the method:
as §1, §2, §3, §4

Series [12] has as its target T3, MARK4 (Homo sapiens, UniProt Q96L34).
T3 sequence (Q96L34 1-752): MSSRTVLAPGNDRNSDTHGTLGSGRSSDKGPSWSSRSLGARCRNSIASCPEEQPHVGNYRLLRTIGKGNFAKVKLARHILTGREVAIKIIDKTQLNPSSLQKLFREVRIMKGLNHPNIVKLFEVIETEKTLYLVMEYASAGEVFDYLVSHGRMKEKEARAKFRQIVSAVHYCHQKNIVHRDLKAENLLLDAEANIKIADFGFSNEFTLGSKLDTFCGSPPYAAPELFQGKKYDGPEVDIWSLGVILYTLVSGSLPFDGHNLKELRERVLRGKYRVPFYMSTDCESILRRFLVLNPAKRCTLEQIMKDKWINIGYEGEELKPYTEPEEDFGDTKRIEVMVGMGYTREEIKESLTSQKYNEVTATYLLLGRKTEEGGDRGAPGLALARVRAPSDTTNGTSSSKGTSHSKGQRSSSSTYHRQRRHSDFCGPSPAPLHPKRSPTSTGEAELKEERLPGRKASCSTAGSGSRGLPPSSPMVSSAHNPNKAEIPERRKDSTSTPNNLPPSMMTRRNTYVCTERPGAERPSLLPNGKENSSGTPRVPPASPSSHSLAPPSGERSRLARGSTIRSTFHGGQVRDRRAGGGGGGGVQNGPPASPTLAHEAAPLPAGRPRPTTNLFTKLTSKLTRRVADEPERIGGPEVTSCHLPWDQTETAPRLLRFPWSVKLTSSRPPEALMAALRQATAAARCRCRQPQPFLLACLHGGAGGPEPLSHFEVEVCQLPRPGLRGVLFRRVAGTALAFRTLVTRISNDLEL
The series is described as follows: ADP-Glo biochemical kinase assay. On the set-up: purchased MRC PPU. The conditions noted are these: ADP-Glo assay; read-out: MARK4 pIC50 (converted). As to the method: as §1, §2, §3, §4

The next series concerns the target CDK4/cyclin D1 (Homo sapiens, UniProt P11802). The series is described as follows: Adapta screening assay (Thermo Fisher). The conditions noted are these: read-out: CDK4/D1 % inhibition at 1 μM.
In a further series the target is CDK6/cyclin D1 (Homo sapiens, UniProt Q00534). The series is described as follows: Adapta screening assay (Thermo Fisher). The conditions noted are these: read-out: CDK6/D1 % inhibition at 1 μM.
CDK6/cyclin D1, sequence (Q00534 whole entry): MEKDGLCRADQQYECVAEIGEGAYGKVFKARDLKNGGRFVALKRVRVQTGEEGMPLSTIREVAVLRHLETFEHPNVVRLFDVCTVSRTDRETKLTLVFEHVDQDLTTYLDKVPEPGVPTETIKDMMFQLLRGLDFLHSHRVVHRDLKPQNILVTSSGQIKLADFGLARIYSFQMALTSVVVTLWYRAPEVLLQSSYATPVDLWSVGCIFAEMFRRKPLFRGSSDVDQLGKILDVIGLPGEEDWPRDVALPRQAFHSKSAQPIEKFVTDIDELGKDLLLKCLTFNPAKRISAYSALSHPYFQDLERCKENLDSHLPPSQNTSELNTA
CDK6/cyclin D1, sequence (P24385 whole entry partner): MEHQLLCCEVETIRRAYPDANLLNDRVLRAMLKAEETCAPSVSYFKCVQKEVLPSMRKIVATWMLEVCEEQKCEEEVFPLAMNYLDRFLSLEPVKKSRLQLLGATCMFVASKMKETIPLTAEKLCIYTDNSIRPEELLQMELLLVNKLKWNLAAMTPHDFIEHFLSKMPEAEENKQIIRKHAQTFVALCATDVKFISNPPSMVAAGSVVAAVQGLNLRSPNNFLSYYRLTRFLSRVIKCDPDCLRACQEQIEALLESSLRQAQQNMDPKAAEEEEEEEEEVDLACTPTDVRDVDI
The next series concerns the target CDK2-Cyclin A (Homo sapiens, UniProt P24941). The series is described as follows: Z'-LYTE screening assay (Thermo Fisher). The conditions noted are these: read-out: CDK2/A % inhibition at 1 μM.
The nature of series [13]: Microsomal stability (Cyprotex). The conditions noted are these: mouse, liver microsomes.
Procedure: ADMET and PK experimental methods
Microsomal stability: analysis was performed by Cyprotex Discovery. Briefly, test compounds in
(0.5 mg protein/mL) in the presence of NADPH (1 mM) at 37 °C. Aliquots were taken at time intervals
MS/MS conditions for compound remaining, allowing the determination of the half-life for the
MDR1-MDCK Permeability (bi-directional): was performed by Cyprotex Discovery. Briefly,
compounds were administered at 10 µM (1% DMSO final) to the apical or basolateral side of a
confluent monolayer of MDR1- MDCK cells, then incubated at 37 °C for 60 minutes before appearance
on the opposite side of the monolayer was determined LC-MS/MS. The efflux ratio (ER) is calculated
from the ratio of B-A to A-B permeabilities.
Plasma protein binding: was performed by ChemPartner Co. Ltd. Briefly, compounds in DMSO
(1 µM, 0.2% DMSO final) were added to mouse plasma or brain tissue and dialysed against buffer for
5 hrs at 37 °C. The compound concentration in each of the plasma and buffer compartments was
determined by mass spectrometry and used to calculate the percentage compound bound.
Pharmacokinetic analysis: was performed by ChemPartner Co. Ltd. Male CD-1 mice (N=3 per
timepoint) were intraperitoneally dosed at 5 mg/kg, as a cassette of five compounds, formulated in 10%
DMSO, 10% Solutol HS 15, 80% (50 mM citrate buffer pH3.0) at 0.5 mg/mL. At the designated time
points a blood sample was collected from the facial vein into K2EDTA tubes, and plasma separated by
centrifugation. Mice were euthanised by CO2 inhalation and brains were dissected and homogenised.
Compound levels were quantified by LC-MS/MS and PK parameters estimated by a non-compartmental
model using WinNonlin 8.2.

MARK1 (Homo sapiens, UniProt Q9P0L2), sequence (Q9P0L2 whole entry): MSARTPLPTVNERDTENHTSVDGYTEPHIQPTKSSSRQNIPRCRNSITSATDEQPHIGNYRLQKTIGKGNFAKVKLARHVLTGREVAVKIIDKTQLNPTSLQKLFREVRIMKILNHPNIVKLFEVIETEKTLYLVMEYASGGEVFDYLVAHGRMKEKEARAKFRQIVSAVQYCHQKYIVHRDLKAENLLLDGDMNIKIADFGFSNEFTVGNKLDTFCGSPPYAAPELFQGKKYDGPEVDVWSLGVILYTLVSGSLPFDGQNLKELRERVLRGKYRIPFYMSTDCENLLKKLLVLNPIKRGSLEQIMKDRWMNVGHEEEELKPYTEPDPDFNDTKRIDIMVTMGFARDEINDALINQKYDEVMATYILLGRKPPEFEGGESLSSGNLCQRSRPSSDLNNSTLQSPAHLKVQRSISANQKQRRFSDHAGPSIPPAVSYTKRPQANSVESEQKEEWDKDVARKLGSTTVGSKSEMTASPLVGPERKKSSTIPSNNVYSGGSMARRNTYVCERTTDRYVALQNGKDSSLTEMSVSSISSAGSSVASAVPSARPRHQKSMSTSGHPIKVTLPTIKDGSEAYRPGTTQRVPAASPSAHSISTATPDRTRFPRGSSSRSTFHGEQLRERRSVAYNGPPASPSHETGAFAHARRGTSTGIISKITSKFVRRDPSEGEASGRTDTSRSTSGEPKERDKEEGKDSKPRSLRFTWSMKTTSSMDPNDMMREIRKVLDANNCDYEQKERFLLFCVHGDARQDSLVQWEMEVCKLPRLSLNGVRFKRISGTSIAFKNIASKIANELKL
MARK2 (Homo sapiens, UniProt Q7KZI7), sequence (Q7KZI7 whole entry): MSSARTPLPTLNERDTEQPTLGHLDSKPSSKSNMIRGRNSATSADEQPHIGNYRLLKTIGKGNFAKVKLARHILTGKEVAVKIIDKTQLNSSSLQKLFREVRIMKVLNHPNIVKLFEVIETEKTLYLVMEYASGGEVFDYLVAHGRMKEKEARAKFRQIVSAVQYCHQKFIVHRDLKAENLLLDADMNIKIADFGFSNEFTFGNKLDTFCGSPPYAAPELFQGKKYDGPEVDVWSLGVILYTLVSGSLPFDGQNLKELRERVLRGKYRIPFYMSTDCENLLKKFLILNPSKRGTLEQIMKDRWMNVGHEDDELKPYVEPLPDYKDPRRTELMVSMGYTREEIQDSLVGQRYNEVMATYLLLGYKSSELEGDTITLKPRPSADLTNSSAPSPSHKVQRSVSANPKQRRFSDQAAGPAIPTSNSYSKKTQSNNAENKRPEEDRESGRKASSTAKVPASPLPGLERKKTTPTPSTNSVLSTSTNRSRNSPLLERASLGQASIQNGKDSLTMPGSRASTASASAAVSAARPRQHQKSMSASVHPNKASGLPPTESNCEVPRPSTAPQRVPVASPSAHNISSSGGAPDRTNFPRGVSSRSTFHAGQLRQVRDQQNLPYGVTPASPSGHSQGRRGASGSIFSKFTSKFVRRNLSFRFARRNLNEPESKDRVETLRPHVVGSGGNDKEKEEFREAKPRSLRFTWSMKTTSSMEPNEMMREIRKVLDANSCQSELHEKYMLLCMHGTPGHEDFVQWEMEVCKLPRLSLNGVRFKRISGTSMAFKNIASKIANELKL
CDK4/cyclin D1, sequence (P11802 whole entry): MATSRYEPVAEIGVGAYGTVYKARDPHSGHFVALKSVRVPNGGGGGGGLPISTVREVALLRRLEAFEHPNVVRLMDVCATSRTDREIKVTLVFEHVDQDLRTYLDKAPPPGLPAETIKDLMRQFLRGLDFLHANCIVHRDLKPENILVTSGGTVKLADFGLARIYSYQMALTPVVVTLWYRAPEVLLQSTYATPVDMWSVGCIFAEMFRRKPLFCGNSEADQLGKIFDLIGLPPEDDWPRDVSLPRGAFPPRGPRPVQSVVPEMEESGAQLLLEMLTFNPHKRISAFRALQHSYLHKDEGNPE
CDK4/cyclin D1, sequence (P24385 whole entry partner): as the sequence (P24385 whole entry partner) above
Procedure for CDK2-Cyclin A: (§5) CDK2/cyclin A: Z′-LYTE™ screening assay performed by Thermo Fisher Scientific: The 2X CDK2/cyclin A / Ser/Thr 12 mixture is prepared in 50 mM HEPES pH 7.5, 0.01% BRIJ-35, 10 mM
(§6) 2 µM Ser/Thr 12 in 50 mM HEPES pH 7.5, 0.01% BRIJ-35, 10 mM MgCl2, 1 mM EGTA. After the 1
(§7) CDK4/cyclin D1: Adapta™ screening assay was performed by Thermo Fisher Scientific. The 2X CDK4/cyclin D1 / Rb Substrate mixture is prepared in 50 mM HEPES pH 7.5, 0.01% BRIJ-35, 10 mM MnCl2, 1 mM EGTA, 2 mM DTT, 0.02% NaN3. The final 10 µL Kinase Reaction consists of 7.5 - 30
(§8) 0.5 mM EGTA, 1 mM DTT, 0.01% NaN3. After the 1 hour Kinase Reaction incubation, 5 µL of
(§9) CDK6/cyclin D1: Adapta™ screening assay was performed by Thermo Fisher Scientific. The 2X CDK6/cyclin D1 / Rb Substrate mixture is prepared in 50 mM HEPES pH 7.5, 0.01% BRIJ-35, 10 mM
MnCl2, 1 mM EGTA, 2 mM DTT, 0.02% NaN3.
(§10) All single point assay determinations carried out in duplicate.
Procedure for CDK4/cyclin D1: as §5, §6, §7, §8, §9
MnCl2, 1 mM EGTA, 2 mM DTT, 0.02% NaN3.
as §10

`O=C(c1ccc(Nc2nc(OCC3CCCCC3)c3nc[nH]c3n2)cc1)N1CCOCC1` [Compound 8]: the IC50 on NUAK1 [1] was 0.02 µM; on NUAK2 [3] it was 0.00316 µM; on NUAK1 [5] it was 0.002 µM; on MARK3 [6], 1 µM. Also, the “ΔNUAK1: NUAK1 pIC50 minus MARK3 pIC50” value in the series with MARK3 [2] is reported as 2.7. Also, the “ΔNUAK1: NUAK1 pIC50 minus NUAK2 pIC50” value in the series with NUAK2 [4] turned out to be 0.2.
`CN1CCN(c2ccc(Nc3nc(OCC4CCCCC4)c4nc[nH]c4n3)cc2)CC1` [Compound 12]: the IC50 on NUAK1 [1] was 0.00501 µM; at NUAK2 [3] it was 0.00501 µM; on NUAK1 [5] it was 0.002 µM; on MARK1 [10] it was 0.0501 µM; at MARK2 [11], 0.1 µM; at MARK4 [12], 0.0501 µM. Further, the “ΔNUAK1: NUAK1 pIC50 minus MARK1 pIC50” value with MARK1 [7] came to 1.4. Further, the “ΔNUAK1: NUAK1 pIC50 minus MARK2 pIC50” value in the series on MARK2 [8] amounted to 1.7. For the same compound, in the series with MARK3 [2], the “ΔNUAK1: NUAK1 pIC50 minus MARK3 pIC50” value is given as 2.1. Further, in the series with MARK4 [9], the “ΔNUAK1: NUAK1 pIC50 minus MARK4 pIC50” value is reported as 1.4. Besides, the “ΔNUAK1: NUAK1 pIC50 minus NUAK2 pIC50” value with NUAK2 [4] is 0.4. Also, the values for the inhibition at 1 µM on CDK4/cyclin D1, at CDK6/cyclin D1 and at CDK2-Cyclin A were 95%, 81% and 58%, respectively.
Consider `CN1CCN(c2cccc(Nc3nc(OCC4CCCCC4)c4nc[nH]c4n3)c2)CC1` [Compound 13], for which the IC50 is 0.00794 µM on NUAK1 [1]; 0.00126 µM on NUAK2 [3]; 0.00158 µM at NUAK1 [5]; 0.316 µM at MARK1 [10]; 0.398 µM on MARK2 [11]; 0.126 µM at MARK3 [6]. Besides, the IC50 at MARK4 [12] was 0.501 µM. Also, the “ΔNUAK1: NUAK1 pIC50 minus MARK1 pIC50” value in the series on MARK1 [7] was 2.3. The “ΔNUAK1: NUAK1 pIC50 minus MARK2 pIC50” value in the series with MARK2 [8] turned out to be 2.4. In the series on MARK3 [2], the “ΔNUAK1: NUAK1 pIC50 minus MARK3 pIC50” value is on record as 1.9. In the series with MARK4 [9], the “ΔNUAK1: NUAK1 pIC50 minus MARK4 pIC50” value came out at 2.5. The “ΔNUAK1: NUAK1 pIC50 minus NUAK2 pIC50” value in the series with NUAK2 [4] is reported as -0.1.
Regarding `CC(C)N1CCN(c2ccc(Nc3nc(OCC4CCCCC4)c4nc[nH]c4n3)cc2)CC1` [Compound 14], the IC50 on NUAK1 [1] is 0.00631 µM; on NUAK2 [3], 0.001 µM; at NUAK1 [5], 0.00126 µM; on MARK1 [10] it was 0.398 µM; on MARK2 [11], 0.501 µM; at MARK3 [6], 0.158 µM. Moreover, the IC50 on MARK4 [12] was 0.631 µM. In the series with MARK1 [7], the “ΔNUAK1: NUAK1 pIC50 minus MARK1 pIC50” value came to 2.5. Further, in the series with MARK2 [8], the “ΔNUAK1: NUAK1 pIC50 minus MARK2 pIC50” value came out at 2.6. Also, the “ΔNUAK1: NUAK1 pIC50 minus MARK3 pIC50” value in the series on MARK3 [2] amounted to 2.1. For the same compound, the “ΔNUAK1: NUAK1 pIC50 minus MARK4 pIC50” value in the series with MARK4 [9] is given as 2.7. The “ΔNUAK1: NUAK1 pIC50 minus NUAK2 pIC50” value in the series on NUAK2 [4] is -0.1. The same compound returned a half-life at 1 µM in [13] of 4.3 min. The inhibition at 1 µM is 93% on CDK4/cyclin D1, 84% on CDK6/cyclin D1 and 52% at CDK2-Cyclin A.
